Source: US10765114B2, “4-amino-6-(pyridyl and 2-substitutedphenyl)-picolinates and 6-amino-2-(pyridyl and 2-substitutedphenyl)-pyrimidine-4-carboxylates and their use as herbicides” (Dow AgroSciences LLC, priority 2013, dated 2020)

tested on: Key Broadleaf Weed and Crop Species; assay: Post-Emergent Test II (Table 5); format: in vivo; details: Abutilon theophrasti, post-emergence, 336 h, ABUTH: velvetleaf (Abutilon theophrasti), application rate 70 (kg ai/ha; footnote: g ai/ha), read-out: Visual Growth Reduction (%) 14 Days After Application ABUTH
Outline: (§1)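 Post-emergence greenhouse spray, 1st-2nd true leaf stage; track sprayer, 187 L/ha; acetone/DMSO stock diluted in aqueous acetone/IPA/DMSO with Atplus 411F and Triton X-155; rates 1× to 1/16×; subirrigated; visual injury 0 (none) to 100% (complete kill) at 14 days.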

Q: `Nc1c(F)c(-c2ccc(I)nc2)nc(C(=O)O)c1Cl` [Compound 81] was tested. Which pest or weed control at 70 g/ha did it give?
A: 85 to 94%

same assay, conditions: Abutilon theophrasti, post-emergence, 336 h, ABUTH: velvetleaf (Abutilon theophrasti), application rate 140 (kg ai/ha; footnote: g ai/ha), read-out: Visual Growth Reduction (%) 14 Days After Application ABUTH

Q: With `Nc1c(F)c(-c2ccc(I)nc2)nc(C(=O)O)c1Cl` [Compound 81] as the compound, how does the pest or weed control at 140 g/ha read?
A: 85 to 94%

same assay, conditions: Amaranthus retroflexus, post-emergence, 336 h, AMARE: redroot pigweed (Amaranthus retroflexus), application rate 70 (kg ai/ha; footnote: g ai/ha), read-out: Visual Growth Reduction (%) 14 Days After Application AMARE

Q: Which pest or weed control at 70 g/ha does the source give for `Nc1c(F)c(-c2ccc(I)nc2)nc(C(=O)O)c1Cl` [Compound 81] here?
A: 95 to 100%

same assay, conditions: Amaranthus retroflexus, post-emergence, 336 h, AMARE: redroot pigweed (Amaranthus retroflexus), application rate 140 (kg ai/ha; footnote: g ai/ha), read-out: Visual Growth Reduction (%) 14 Days After Application AMARE

Q: `Nc1c(F)c(-c2ccc(I)nc2)nc(C(=O)O)c1Cl` [Compound 81] was tested. Which pest or weed control at 140 g/ha did it give?
A: 95 to 100%

same assay, conditions: Brassica napus, post-emergence, 336 h, BRSSS: oilseed rape, canola (Brassica napus), application rate 70 (kg ai/ha; footnote: g ai/ha), read-out: Visual Growth Reduction (%) 14 Days After Application BRSSS

Q: With `Nc1c(F)c(-c2ccc(I)nc2)nc(C(=O)O)c1Cl` [Compound 81] as the compound, how does the pest or weed control at 70 g/ha read?
A: 85 to 94%

same assay, conditions: Brassica napus, post-emergence, 336 h, BRSSS: oilseed rape, canola (Brassica napus), application rate 140 (kg ai/ha; footnote: g ai/ha), read-out: Visual Growth Reduction (%) 14 Days After Application BRSSS

Q: With `Nc1c(F)c(-c2ccc(I)nc2)nc(C(=O)O)c1Cl` [Compound 81] as the compound, how does the pest or weed control at 140 g/ha read?
A: 85 to 94%

same assay, conditions: Chenopodium album, post-emergence, 336 h, CHEAL: lambsquarters (Chenopodium album), application rate 70 (kg ai/ha; footnote: g ai/ha), read-out: Visual Growth Reduction (%) 14 Days After Application CHEAL

Q: With `Nc1c(F)c(-c2ccc(I)nc2)nc(C(=O)O)c1Cl` [Compound 81] as the compound, how does the pest or weed control at 70 g/ha read?
A: 95 to 100%

same assay, conditions: Chenopodium album, post-emergence, 336 h, CHEAL: lambsquarters (Chenopodium album), application rate 140 (kg ai/ha; footnote: g ai/ha), read-out: Visual Growth Reduction (%) 14 Days After Application CHEAL

Q: `Nc1c(F)c(-c2ccc(I)nc2)nc(C(=O)O)c1Cl` [Compound 81] was tested. Which pest or weed control at 140 g/ha did it give?
A: 95 to 100%

same assay, conditions: Euphorbia heterophylla, post-emergence, 336 h, EPHHL: wild poinsettia (Euphorbia heterophylla), application rate 70 (kg ai/ha; footnote: g ai/ha), read-out: Visual Growth Reduction (%) 14 Days After Application EPHHL

Q: For `Nc1c(F)c(-c2ccc(I)nc2)nc(C(=O)O)c1Cl` [Compound 81], which pest or weed control at 70 g/ha is on record?
A: 95 to 100%

same assay, conditions: Euphorbia heterophylla, post-emergence, 336 h, EPHHL: wild poinsettia (Euphorbia heterophylla), application rate 140 (kg ai/ha; footnote: g ai/ha), read-out: Visual Growth Reduction (%) 14 Days After Application EPHHL

Q: For `Nc1c(F)c(-c2ccc(I)nc2)nc(C(=O)O)c1Cl` [Compound 81], which pest or weed control at 140 g/ha is on record?
A: 95 to 100%

same assay, conditions: Helianthus annuus, post-emergence, 336 h, HELAN: sunflower (Helianthus annuus), application rate 70 (kg ai/ha; footnote: g ai/ha), read-out: Visual Growth Reduction (%) 14 Days After Application HELAN

Q: How did the pest or weed control at 70 g/ha turn out when `Nc1c(F)c(-c2ccc(I)nc2)nc(C(=O)O)c1Cl` [Compound 81] was run?
A: 75 to 84%

same assay, conditions: Helianthus annuus, post-emergence, 336 h, HELAN: sunflower (Helianthus annuus), application rate 140 (kg ai/ha; footnote: g ai/ha), read-out: Visual Growth Reduction (%) 14 Days After Application HELAN

Q: For `Nc1c(F)c(-c2ccc(I)nc2)nc(C(=O)O)c1Cl` [Compound 81], which pest or weed control at 140 g/ha is on record?
A: 85 to 94%

same assay, conditions: Viola tricolor, post-emergence, 336 h, VIOTR: wild pansy (Viola tricolor), application rate 70 (kg ai/ha; footnote: g ai/ha), read-out: Visual Growth Reduction (%) 14 Days After Application VIOTR

Q: How did the pest or weed control at 70 g/ha turn out when `Nc1c(F)c(-c2ccc(I)nc2)nc(C(=O)O)c1Cl` [Compound 81] was run?
A: 95 to 100%

same assay, conditions: Viola tricolor, post-emergence, 336 h, VIOTR: wild pansy (Viola tricolor), application rate 140 (kg ai/ha; footnote: g ai/ha), read-out: Visual Growth Reduction (%) 14 Days After Application VIOTR

Q: For `Nc1c(F)c(-c2ccc(I)nc2)nc(C(=O)O)c1Cl` [Compound 81], which pest or weed control at 140 g/ha is on record?
A: 95 to 100%

tested on: Key Grass and Sedge Weeds as well as Grass Crops; assay: Post-Emergent Test II (Table 6); format: in vivo; details: post-emergence, 336 h, CYPSS, 70 g ai/ha, 14 days after application, read-out: Visual Growth Reduction (%) 14 Days After Application CYPSS
Outline: as §1

Q: `Nc1c(F)c(-c2ccc(I)nc2)nc(C(=O)O)c1Cl` [Compound 81] was tested. Which pest or weed control at 70 g/ha did it give?
A: 95 to 100%

same assay, conditions: post-emergence, 336 h, CYPSS, 140 g ai/ha, 14 days after application, read-out: Visual Growth Reduction (%) 14 Days After Application CYPSS

Q: Which pest or weed control at 140 g/ha does the source give for `Nc1c(F)c(-c2ccc(I)nc2)nc(C(=O)O)c1Cl` [Compound 81] here?
A: 95 to 100%

same assay, conditions: post-emergence, 336 h, DIGSA: crabgrass (Digitaria sanguinalis), 70 g ai/ha, 14 days after application, read-out: Visual Growth Reduction (%) 14 Days After Application DIGSA

Q: How did the pest or weed control at 70 g/ha turn out when `Nc1c(F)c(-c2ccc(I)nc2)nc(C(=O)O)c1Cl` [Compound 81] was run?
A: 75 to 84%

same assay, conditions: post-emergence, 336 h, DIGSA: crabgrass (Digitaria sanguinalis), 140 g ai/ha, 14 days after application, read-out: Visual Growth Reduction (%) 14 Days After Application DIGSA

Q: With `Nc1c(F)c(-c2ccc(I)nc2)nc(C(=O)O)c1Cl` [Compound 81] as the compound, how does the pest or weed control at 140 g/ha read?
A: 75 to 84%

same assay, conditions: post-emergence, 336 h, ECHSS, 70 g ai/ha, 14 days after application, read-out: Visual Growth Reduction (%) 14 Days After Application ECHSS

Q: `Nc1c(F)c(-c2ccc(I)nc2)nc(C(=O)O)c1Cl` [Compound 81] was tested. Which pest or weed control at 70 g/ha did it give?
A: 85 to 94%

same assay, conditions: post-emergence, 336 h, ECHSS, 140 g ai/ha, 14 days after application, read-out: Visual Growth Reduction (%) 14 Days After Application ECHSS

Q: For `Nc1c(F)c(-c2ccc(I)nc2)nc(C(=O)O)c1Cl` [Compound 81], which pest or weed control at 140 g/ha is on record?
A: 85 to 94%

same assay, conditions: post-emergence, 336 h, ORYSS (crop), 70 g ai/ha, 14 days after application, read-out: Visual Growth Reduction (%) 14 Days After Application ORYSS

Q: For `Nc1c(F)c(-c2ccc(I)nc2)nc(C(=O)O)c1Cl` [Compound 81], which pest or weed control at 70 g/ha is on record?
A: 45 to 59%

same assay, conditions: post-emergence, 336 h, ORYSS (crop), 140 g ai/ha, 14 days after application, read-out: Visual Growth Reduction (%) 14 Days After Application ORYSS

Q: How did the pest or weed control at 140 g/ha turn out when `Nc1c(F)c(-c2ccc(I)nc2)nc(C(=O)O)c1Cl` [Compound 81] was run?
A: 60 to 74%

same assay, conditions: post-emergence, 336 h, SETFA: giant foxtail (Setaria faberi), 70 g ai/ha, 14 days after application, read-out: Visual Growth Reduction (%) 14 Days After Application SETFA

Q: With `Nc1c(F)c(-c2ccc(I)nc2)nc(C(=O)O)c1Cl` [Compound 81] as the compound, how does the pest or weed control at 70 g/ha read?
A: 75 to 84%

same assay, conditions: post-emergence, 336 h, SETFA: giant foxtail (Setaria faberi), 140 g ai/ha, 14 days after application, read-out: Visual Growth Reduction (%) 14 Days After Application SETFA

Q: `Nc1c(F)c(-c2ccc(I)nc2)nc(C(=O)O)c1Cl` [Compound 81] was tested. Which pest or weed control at 140 g/ha did it give?
A: 85 to 94%

same assay, conditions: post-emergence, 336 h, SORVU: grain sorghum (Sorghum vulgare), 70 g ai/ha, 14 days after application, read-out: Visual Growth Reduction (%) 14 Days After Application SORVU

Q: How did the pest or weed control at 70 g/ha turn out when `Nc1c(F)c(-c2ccc(I)nc2)nc(C(=O)O)c1Cl` [Compound 81] was run?
A: 45 to 59%

same assay, conditions: post-emergence, 336 h, SORVU: grain sorghum (Sorghum vulgare), 140 g ai/ha, 14 days after application, read-out: Visual Growth Reduction (%) 14 Days After Application SORVU

Q: `Nc1c(F)c(-c2ccc(I)nc2)nc(C(=O)O)c1Cl` [Compound 81] was tested. Which pest or weed control at 140 g/ha did it give?
A: 45 to 59%

same assay, conditions: post-emergence, 336 h, TRZSS (crop), 70 g ai/ha, 14 days after application, read-out: Visual Growth Reduction (%) 14 Days After Application TRZSS

Q: For `Nc1c(F)c(-c2ccc(I)nc2)nc(C(=O)O)c1Cl` [Compound 81], which pest or weed control at 70 g/ha is on record?
A: 60 to 74%

same assay, conditions: post-emergence, 336 h, TRZSS (crop), 140 g ai/ha, 14 days after application, read-out: Visual Growth Reduction (%) 14 Days After Application TRZSS

Q: `Nc1c(F)c(-c2ccc(I)nc2)nc(C(=O)O)c1Cl` [Compound 81] was tested. Which pest or weed control at 140 g/ha did it give?
A: 60 to 74%

same assay, conditions: post-emergence, 336 h, ZEAMX: maize, corn (Zea mays), 70 g ai/ha, 14 days after application, read-out: Visual Growth Reduction (%) 14 Days After Application ZEAMX

Q: For `Nc1c(F)c(-c2ccc(I)nc2)nc(C(=O)O)c1Cl` [Compound 81], which pest or weed control at 70 g/ha is on record?
A: 30 to 44%

same assay, conditions: post-emergence, 336 h, ZEAMX: maize, corn (Zea mays), 140 g ai/ha, 14 days after application, read-out: Visual Growth Reduction (%) 14 Days After Application ZEAMX

Q: With `Nc1c(F)c(-c2ccc(I)nc2)nc(C(=O)O)c1Cl` [Compound 81] as the compound, how does the pest or weed control at 140 g/ha read?
A: 45 to 59%
